One assay deals with T1, ALDH1A2 (Homo sapiens, UniProt O94788).
T1 sequence (O94788 1-518): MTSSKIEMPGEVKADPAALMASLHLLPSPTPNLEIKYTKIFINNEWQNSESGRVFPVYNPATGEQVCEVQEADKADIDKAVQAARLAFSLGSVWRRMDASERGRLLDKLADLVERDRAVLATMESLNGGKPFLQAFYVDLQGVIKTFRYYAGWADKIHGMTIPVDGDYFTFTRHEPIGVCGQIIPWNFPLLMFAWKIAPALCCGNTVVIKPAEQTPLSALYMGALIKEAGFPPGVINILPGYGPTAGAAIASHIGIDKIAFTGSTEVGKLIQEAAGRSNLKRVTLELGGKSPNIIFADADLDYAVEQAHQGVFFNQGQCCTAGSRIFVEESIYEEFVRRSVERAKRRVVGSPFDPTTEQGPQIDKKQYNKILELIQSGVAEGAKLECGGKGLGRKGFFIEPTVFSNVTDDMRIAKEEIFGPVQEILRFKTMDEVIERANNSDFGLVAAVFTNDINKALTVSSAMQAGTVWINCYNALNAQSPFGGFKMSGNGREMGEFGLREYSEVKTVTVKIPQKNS
Kind of assay: Cell-based enzyme assay, retinoic acid production in ALDH1A2/H1299 cells. An outline of the steps: (§1)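 ALDH1A1- or ALDH1A2-stably transfected H1299 cells grown to confluence, then treated 20 h in serum-free RPMI-1640 with 2 μM all-trans-retinal plus varying inhibitor concentrations at 37 °C. Retinoic acid in cells and media quantified; inhibition from RA levels with vs without inhibitor.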

For assay [1], the target named is T2, ALDH1A1 (Homo sapiens, UniProt P00352).
T2 sequence (P00352 1-501): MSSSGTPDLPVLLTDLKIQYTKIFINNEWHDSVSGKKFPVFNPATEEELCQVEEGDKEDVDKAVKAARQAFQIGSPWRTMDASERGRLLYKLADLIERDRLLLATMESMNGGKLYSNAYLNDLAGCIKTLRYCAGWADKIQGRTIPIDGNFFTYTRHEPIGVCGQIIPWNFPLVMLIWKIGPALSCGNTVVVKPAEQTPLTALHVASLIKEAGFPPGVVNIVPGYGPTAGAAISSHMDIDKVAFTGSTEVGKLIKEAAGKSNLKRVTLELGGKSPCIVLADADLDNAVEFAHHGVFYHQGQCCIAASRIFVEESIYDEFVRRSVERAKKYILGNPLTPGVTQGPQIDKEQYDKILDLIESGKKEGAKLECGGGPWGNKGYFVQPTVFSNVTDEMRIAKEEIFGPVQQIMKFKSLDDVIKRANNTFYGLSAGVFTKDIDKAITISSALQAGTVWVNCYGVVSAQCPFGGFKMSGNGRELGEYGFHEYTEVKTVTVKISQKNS
Kind of assay: Cell-based enzyme assay, retinoic acid production in ALDH1A1/H1299 cells. An outline of the steps: as §1

The target of assay [2] is T2, ALDH1A1. In words: Inhibitor screening using purified enzymes: ALDH1A1 activity, retinoic acid production by HPLC. The conditions noted are these: purified enzyme. It counts as biochemical. From the text: ALDHs were cloned into bacterial expression vector for in vitro enzyme assays and into mammalian expression vectors for cell-based enzyme assays. Human ALDH1A1 cDNA and human ALDH2 cDNA were purchased from OriGene (SC321535) and Open Biosystems (MHS4771-99611182), respectively. and human ALDH1A2 cDNA was cloned from human testis RNA using RT-PCR (Population Division of the Department of Economic and Social Affairs of the United Nations Secretariat. World Population prospects: the 2008 revision. Available at http://www.un.org/esa/population/ (Retrieved Sep. 30, 2011)). For bacterial expression, an open reading frame of ALDH1A1 and ALDH2 were subcloned into the pETite vector (Lucigen) with a 5′ histidine-tag and that of ALDH1A2 into a pET28 vector (Novagen) with a 3′ histidine-tag. Correct frame and sequences were verified through DNA sequencing (UW DNA sequencing facility). ALDHs were induced with 1 mM IPTG and purified using His.Bind resin (Novagen, San Diego, Calif.) and stored in a buffer containing 20 mM Hepes (pH 8), 150 mM KCl and 1 mM EDTA as previously described (Fierce, Y., de Morais Vieira, M., Piantedosi, R., Wyss, A., Blaner, W. S., and Paik, J. (2008) In vitro and in vivo characterization of retinoid synthesis from beta-carotene. Archives of biochemistry and biophysics 472, 126-138).
ALDH1A1 and ALDH1A2 activity was determined as previously reported (Beedle M T, Stevison F, Zhong G, Topping T, Hogarth C, Isoherranen N, Griswold M D. Sources of All-Trans Retinal Oxidation Independent of the Aldehyde Dehydrogenase 1A Isozymes Exist in the Postnatal Testis. Biol Reprod. 2018 Sep. 21. doi: 10.1093/biolre/ioy200). Briefly, purified enzymes were incubated in a buffer containing 10 mM HEPES buffer (pH 8.0), 150 mM potassium chloride and 2 mM EDTA with 2 mM NAD. Retinoic acid production was determined using HPLC as previously reported (Amory J K, Muller C H, Shimshoni A J, Isoherranen N, Paik J, Moreb J S, Amory D W, Evanoff R, Goldstein A S, Griswold M D. Suppression of spermatogenesis by bisdichloroacetyldiamines is mediated by inhibition of testicular retinoic acid biosynthesis. Journal of Andrology 2011; 32(1):111-119). Inhibitors were diluted in DMSO and added to the reactions. […] For initial screening of inhibitors for ALDH1A2, 1 μg ALDH1A2, 5 μM all-trans-retinal and 5 μM inhibitors were incubated for 15 min at 37° C. […] For this purpose, 0.5 μg ALDH1A2 and […] were incubated for 5 minutes at 37° C. with varying concentrations of inhibitors. To determine specificity toward ALDH1A2, the IC50 for […]

Like-named read-outs stand apart in the source and are kept apart here.

`O=C(c1cccc(Cl)c1)N1CCN(c2ccc([N+](=O)[O-])c(N3CCCC3)c2)CC1` [Compound 341, 3-Chlorophenyl-1-{4-[4-nitro-3-(pyrrolidin-1-yl)phenyl]piperazin-1-yl}methanone]: the results for the EC50 on ALDH1A2 and at ALDH1A1 [1] were 0.505 µM and less than 0.5 µM, respectively. Further, the IC50 (usually the midpoint of a concentration-inhibition curve) against ALDH1A1 [2] came out at 1.65 µM.

Consider `O=C(c1ccccc1)N1CCN(c2ccc([N+](=O)[O-])c(N3CCCC3)c2)CC1` [Compound 339, Phenyl-1-{4-[4-nitro-3-(pyrrolidin-1-yl)phenyl]piperazin-1-yl}methanone], for which the EC50 (in general, the midpoint of the concentration-response curve) at ALDH1A2 came to 0.293 µM; at ALDH1A1 [1] it was 0.333 µM. Further, the IC50 against ALDH1A1 [2] stood at 0.675 µM.

Take `Cn1cccc1C(=O)N1CCN(c2ccc(NC(=O)CCl)c(N3CCCC3)c2)CC1` [Compound 372, 1-[4-(4-N-Chloroacetyl-3-(pyrrolidin-1-yl)phenyl]piperazin-1-yl](1-methyl-1H-pyrrol-2-yl)methanone]: the EC50 was determined as 0.7 µM at ALDH1A2 and 0.069 µM at ALDH1A1 [1]. On ALDH1A1 [2], this molecule showed an IC50 of 0.3 µM.

Take `N#Cc1ccc(-n2cc(C(=O)Nc3cccc(F)c3)c(-c3ccc(NC(=O)C(Cl)Cl)cc3)n2)cc1` [Compound 316a, 3-(4-Dichloroacetamidophenyll)-N-(3-fluorophenyl)-1-(4-cyanophenyl)-1H-pyrazole-4-carboxamide]: the EC50 was 0.013 µM on ALDH1A2 (cell-based) and 0.18 µM on ALDH1A1 [1] (cell-based). In addition, the IC50 against ALDH1A1 [2] worked out at 0.249 µM.

On to “3-(4-Acryloylphenyl)-1-phenyl-1H-pyrazole-4-carbaldehyde [Compound 309]”, for which the EC50 was 0.87 µM on ALDH1A2 (cell-based) and 0.73 µM at ALDH1A1 [1] (cell-based). In addition, on ALDH1A1 [2], the IC50 came to 0.005 µM.

Take `Cn1cccc1C(=O)N1CCN(c2ccc(-c3ccc([N+](=O)[O-])cc3)c(N3CCCCC3)c2)CC1` [Compound 373]: the EC50 at ALDH1A2 came to 0.88 µM; on ALDH1A1 [1], 0.37 µM. The same molecule gave an IC50 at ALDH1A1 [2] of 1.44 µM.

Turning to `CC(=O)n1cccc1C(=O)N1CCN(c2ccc([N+](=O)[O-])c(N3CCCC3)c2)CC1` [Compound 347, {4-[4-Nitro-3-(pyrrolidin-1-yl)phenyl]piperazin-1-yl}(1-acetyl-pyrrol-2yl)methanone], the EC50 on ALDH1A2 was 0.35 µM; at ALDH1A1 [1] it was 0.33 µM. The molecule also showed an IC50 against ALDH1A1 [2] of 1.07 µM.

On to `O=C(c1ccc[nH]1)N1CCN(c2ccc([N+](=O)[O-])c(N3CCCC3)c2)CC1` [Compound 344, {4-[4-Nitro-3-(pyrrolidin-1-yl)phenyl]piperazin-1-yl}(1H-pyrrol-2-yl)methanone], for which the EC50 at ALDH1A2 and at ALDH1A1 [1] was less than 0.5 µM in each case. This molecule had an IC50 against ALDH1A1 [2] of 0.453 µM.

In the case of “3-{4-[(Chloroacetyl)amino]phenyl}-N-(3-fluorophenyl)-1-phenyl-1H-pyrazole-4-carboxamide [Compound 294]”, the EC50 on ALDH1A2 (cell-based) and at ALDH1A1 [1] (cell-based) was less than 0.005 µM throughout. This molecule came in with an IC50 against ALDH1A1 [2] of 0.003 µM.

With `Cn1cccc1C(=O)N1CCN(c2ccc(NC(=O)C(Cl)Cl)c(N3CCCC3)c2)CC1` [Compound 367, 1-[4-(4-N-Dichloroacetyl-3-(pyrrolidin-1-yl)phenyl]piperazin-1-yl](1-methyl-1H-pyrrol-2-yl)methanone], the values for the EC50 at ALDH1A2 and at ALDH1A1 [1] were greater than 5 µM and 0.244 µM, respectively. Further, on ALDH1A1 [2], the midpoint of inhibition, the IC50, lay at 0.23 µM.

The record behind these values is patent US11548875B2, “Inhibitor compounds for male contraception” (University of Washington, priority 2018, dated 2023).
